Measurements published in ChEMBL document CHEMBL1909046, “DrugMatrix in vitro pharmacology data”.

Tests used:
D(4) dopamine receptor = target: T1, D(4) dopamine receptor (Homo sapiens, UniProt P21917); experiment: DRUGMATRIX: Dopamine D4.2 radioligand binding (ligand: [3H] Spiperone); format: cell membranes, CHO-K1, Membrane; conditions: cho-k1; Not Active = under 50% inhibition at 10 µM
T1 sequence (P21917 whole entry): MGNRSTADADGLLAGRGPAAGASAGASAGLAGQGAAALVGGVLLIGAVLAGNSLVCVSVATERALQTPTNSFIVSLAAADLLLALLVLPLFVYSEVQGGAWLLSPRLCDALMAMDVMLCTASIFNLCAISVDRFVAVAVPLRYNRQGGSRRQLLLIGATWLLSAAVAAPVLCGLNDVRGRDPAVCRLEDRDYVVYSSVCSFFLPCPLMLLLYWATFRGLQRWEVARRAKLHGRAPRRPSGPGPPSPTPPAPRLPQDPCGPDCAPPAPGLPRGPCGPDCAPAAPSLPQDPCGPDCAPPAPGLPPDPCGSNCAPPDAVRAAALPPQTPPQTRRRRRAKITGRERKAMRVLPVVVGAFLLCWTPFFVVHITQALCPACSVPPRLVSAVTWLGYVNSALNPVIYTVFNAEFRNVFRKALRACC

[1] = target: Delta-type opioid receptor (Homo sapiens, UniProt P41143); format: cell membranes, Membrane; conditions: hek293; further: in other assays of this panel Not Active means under 50% inhibition at 10 µM
Chain of Delta-type opioid receptor (P41143 whole entry): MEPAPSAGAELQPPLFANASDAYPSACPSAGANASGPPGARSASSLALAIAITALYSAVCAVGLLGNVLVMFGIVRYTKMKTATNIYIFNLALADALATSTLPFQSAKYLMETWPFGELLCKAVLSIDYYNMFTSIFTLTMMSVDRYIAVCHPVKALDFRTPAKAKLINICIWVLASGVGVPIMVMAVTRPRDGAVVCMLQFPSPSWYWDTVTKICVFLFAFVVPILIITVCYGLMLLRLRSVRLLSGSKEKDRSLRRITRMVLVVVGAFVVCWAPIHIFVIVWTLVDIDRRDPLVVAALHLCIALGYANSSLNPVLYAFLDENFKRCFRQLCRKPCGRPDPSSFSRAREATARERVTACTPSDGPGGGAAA

Cytochrome P450 2D6 = Cytochrome P450 2D6 (Homo sapiens, UniProt P10635); conditions: bti-tn-5b1-4; further: in other assays of this panel Not Active means under 50% inhibition at 10 µM
Chain of Cytochrome P450 2D6 (P10635 whole entry): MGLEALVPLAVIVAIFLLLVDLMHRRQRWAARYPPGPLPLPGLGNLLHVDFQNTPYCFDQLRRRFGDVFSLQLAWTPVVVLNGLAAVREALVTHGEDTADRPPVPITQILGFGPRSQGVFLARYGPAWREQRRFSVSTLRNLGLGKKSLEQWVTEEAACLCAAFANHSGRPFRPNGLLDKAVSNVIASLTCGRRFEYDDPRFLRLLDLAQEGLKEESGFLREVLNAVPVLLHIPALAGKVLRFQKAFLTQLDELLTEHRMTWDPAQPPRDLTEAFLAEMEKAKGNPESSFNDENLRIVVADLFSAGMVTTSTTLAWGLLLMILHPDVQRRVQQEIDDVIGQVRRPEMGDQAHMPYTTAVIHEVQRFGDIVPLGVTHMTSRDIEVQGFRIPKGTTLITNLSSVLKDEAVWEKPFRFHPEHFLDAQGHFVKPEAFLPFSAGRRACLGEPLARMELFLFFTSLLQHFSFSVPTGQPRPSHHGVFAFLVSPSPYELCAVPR

[2] = target: T2, Amine oxidase [flavin-containing] A (Homo sapiens, UniProt P21397); experiment: DRUGMATRIX: Monoamine Oxidase MAO-A enzyme inhibition (substrate: Kynuramine); set-up: species or system BTI-TN-5B1-4; conditions: bti-tn-5b1-4; Not Active = under 50% inhibition at 10 µM
T2 sequence (P21397 whole entry): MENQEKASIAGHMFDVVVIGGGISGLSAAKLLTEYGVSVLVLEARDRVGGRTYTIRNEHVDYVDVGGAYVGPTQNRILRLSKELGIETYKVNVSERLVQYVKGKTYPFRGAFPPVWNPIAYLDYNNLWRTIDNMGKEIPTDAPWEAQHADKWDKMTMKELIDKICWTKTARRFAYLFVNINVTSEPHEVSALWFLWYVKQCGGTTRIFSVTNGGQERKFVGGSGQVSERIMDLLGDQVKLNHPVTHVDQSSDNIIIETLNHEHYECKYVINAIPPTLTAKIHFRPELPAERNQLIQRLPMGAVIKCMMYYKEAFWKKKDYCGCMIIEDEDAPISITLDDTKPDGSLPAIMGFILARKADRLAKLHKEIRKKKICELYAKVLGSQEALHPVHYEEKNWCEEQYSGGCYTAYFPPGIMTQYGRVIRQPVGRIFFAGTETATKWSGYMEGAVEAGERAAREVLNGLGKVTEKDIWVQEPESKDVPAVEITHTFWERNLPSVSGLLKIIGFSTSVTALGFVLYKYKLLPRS

[3] = DRUGMATRIX: ATPase, Na+/K+ enzyme inhibition (substrate: ATP); format: tissue-based, Sus scrofa, Heart; conditions: Not Active = under 50% inhibition at 10 µM
D(3) dopamine receptor = D(3) dopamine receptor (Homo sapiens, UniProt P35462); experiment: DRUGMATRIX: Dopamine D3 radioligand binding (ligand: [3H] Spiperone); format: cell membranes, CHO, Membrane
Chain of D(3) dopamine receptor (P35462 whole entry): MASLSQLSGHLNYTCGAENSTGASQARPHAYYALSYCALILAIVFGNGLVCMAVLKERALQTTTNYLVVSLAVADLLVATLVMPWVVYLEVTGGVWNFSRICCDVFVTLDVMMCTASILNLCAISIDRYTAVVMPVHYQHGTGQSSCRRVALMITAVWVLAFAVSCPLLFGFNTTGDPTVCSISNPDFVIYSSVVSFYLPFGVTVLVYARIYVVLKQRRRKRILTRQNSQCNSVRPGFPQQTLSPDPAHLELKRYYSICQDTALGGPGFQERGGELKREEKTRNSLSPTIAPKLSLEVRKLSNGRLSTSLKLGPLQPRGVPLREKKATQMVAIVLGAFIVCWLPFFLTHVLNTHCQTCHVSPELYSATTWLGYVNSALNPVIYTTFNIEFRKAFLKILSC

| Molecule | IC50 (D(4) dopamine receptor) | IC50 [1] | IC50 (Cytochrome P450 2D6) | Ki (Cytochrome P450 2D6) | IC50 [2] | IC50 [3] | Ki [3] | IC50 (D(3) dopamine receptor; cho) | IC50 ([3]; read-out: IC50) [nM] | Ki (D(4) dopamine receptor) | Ki [1] | Ki [2] | Ki (D(3) dopamine receptor; cho) | IC50 (D(3) dopamine receptor; read-out: IC50) [nM] | Ki (D(3) dopamine receptor; read-out: Ki) [nM] |
| --- | --- | --- | --- | --- | --- | --- | --- | --- | --- | --- | --- | --- | --- | --- | --- |
| COC(=O)CCc1ccc(OCC(O)CNC(C)C)cc1 (stereo unspecified) [ESMOLOL] | Not Active | Not Active | Not Active | Not Active | Not Active | Not Active | Not Active | Not Active | – | – | – | – | – | – | – |
| C[C@@H]1O[C@@H](O[C@@H]2C=C3CC[C@@H]4[C@H](CC[C@]5(C)[C@@H](c6ccc(=O)oc6)CC[C@]45O)[C@@]3(C)CC2)[C@H](O)[C@H](O)[C@H]1O [PROSCILLARIDIN] | Not Active | Not Active | Not Active | Not Active | Not Active | – | – | Not Active | 88 | – | – | – | – | – | – |
| NYSTATIN | Not Active | Not Active | Not Active | Not Active | Not Active | Not Active | Not Active | Not Active | – | Not Active | Not Active | Not Active | Not Active | – | – |
| O=C(c1ccccc1C(F)(F)F)N1CCC(Cc2ccccc2)CC1 | Not Active | Not Active | Not Active | Not Active | Not Active | Not Active | Not Active | Not Active | – | – | – | – | – | – | – |
| Brc1c(NC2=NCCN2)ccc2nccnc12 [BRIMONIDINE] | Not Active | Not Active | Not Active | Not Active | Not Active | Not Active | Not Active | Not Active | – | – | – | – | – | – | – |
| CC1(C)S[C@@H]2[C@H](NC(=O)[C@H](N)c3ccccc3)C(=O)N2[C@H]1C(=O)O [AMPICILLIN] | Not Active | Not Active | Not Active | Not Active | Not Active | Not Active | Not Active | Not Active | – | – | – | – | – | – | – |
| C[n+]1ccccc1/C=N/O.[Cl-] [PRALIDOXIME CHLORIDE] | Not Active | Not Active | Not Active | Not Active | Not Active | Not Active | Not Active | Not Active | – | – | – | – | – | – | – |
| COc1cc2nc(N3CCN(C(=O)c4ccco4)CC3)nc(N)c2cc1OC [PRAZOSIN] | Not Active | Not Active | Not Active | Not Active | Not Active | Not Active | Not Active | Not Active | – | – | – | – | – | – | – |
| COc1ccc(C2C(=O)c3ccccc3C2=O)cc1 [ANISINDIONE] | Not Active | Not Active | Not Active | Not Active | Not Active | Not Active | Not Active | Not Active | – | – | – | – | – | – | – |
| COC(=O)Nc1nc2ccc([S+]([O-])c3ccccc3)cc2[nH]1 (stereo unspecified) [OXFENDAZOLE] | Not Active | Not Active | Not Active | Not Active | Not Active | Not Active | Not Active | Not Active | – | – | – | – | – | – | – |
| CC(C(=O)O)c1ccc2oc(-c3ccc(Cl)cc3)nc2c1 (stereo unspecified) [BENOXAPROFEN] | Not Active | Not Active | Not Active | Not Active | Not Active | Not Active | Not Active | Not Active | – | – | – | – | – | – | – |
| Nc1ccn([C@@H]2O[C@H](CO)[C@@H](O)C2(F)F)c(=O)n1 [GEMCITABINE] | Not Active | Not Active | Not Active | Not Active | Not Active | Not Active | Not Active | Not Active | – | – | – | – | – | – | – |
| COc1ccc2[nH]cc(CCNC(C)=O)c2c1 [MELATONIN] | Not Active | Not Active | Not Active | Not Active | Not Active | Not Active | Not Active | Not Active | – | – | – | – | – | – | – |
| GADOPENTETATE DIMEGLUMINE | Not Active | Not Active | Not Active | Not Active | Not Active | Not Active | Not Active | Not Active | – | Not Active | Not Active | Not Active | Not Active | – | – |
| C#CC1(O)CC[C@H]2[C@@H]3CCC4=CC(=O)CC[C@@H]4[C@H]3CC[C@@]21CC (stereo partly specified) [NORGESTREL] | Not Active | Not Active | Not Active | Not Active | Not Active | Not Active | Not Active | Not Active | – | – | – | – | – | – | – |
| C[n+]1ccc(-c2cc[n+](C)cc2)cc1.[Cl-].[Cl-] [PARAQUAT DICHLORIDE] | Not Active | Not Active | Not Active | Not Active | Not Active | Not Active | Not Active | Not Active | – | – | – | – | – | – | – |
| C[C@@H]1CC[C@@]2(OC1)O[C@H]1[C@@H](O)[C@H]3[C@@H]4CC[C@H]5C[C@@H](O[C@@H]6O[C@H](CO)[C@H](O[C@@H]7O[C@H](CO)C(O)[C@H](O[C@@H]8OC[C@@H](O)[C@H](O)[C@H]8O)[C@H]7O[C@@H]7O[C@H](CO)[C@H](O)[C@H](O[C@@H]8O[C@H](CO)[C@@H](O)[C@H](O)[C@H]8O)[C@H]7O)[C@H](O)[C@H]6O)[C@H](O)C[C@]5(C)[C@H]4CC[C@]3(C)[C@H]1[C@@H]2C (stereo partly specified) [DIGITONIN] | Not Active | Not Active | Not Active | Not Active | Not Active | Not Active | Not Active | Not Active | – | – | – | – | – | – | – |
| Oc1c(Cl)cc(Cl)c(Cl)c1Cc1c(O)c(Cl)cc(Cl)c1Cl [HEXACHLOROPHENE] | Not Active | Not Active | Not Active | Not Active | Not Active | – | – | Not Active | 6130 | – | – | – | – | – | – |
| O=C1CN=C(c2ccccc2Cl)c2cc([N+](=O)[O-])ccc2N1 [CLONAZEPAM] | Not Active | Not Active | Not Active | Not Active | Not Active | Not Active | Not Active | Not Active | – | – | – | – | – | – | – |
| C[C@@H](CO)NC(=O)[C@@H]1C=C2c3cccc4[nH]cc(c34)C[C@H]2N(C)C1 [ERGONOVINE] | Not Active | Not Active | Not Active | Not Active | Not Active | Not Active | Not Active | – | – | – | – | – | – | 567 | 193 |
| CCn1cc(C(=O)O)c(=O)c2cnc(N3CCCC3)nc21 [PIROMIDIC ACID] | Not Active | Not Active | Not Active | Not Active | Not Active | Not Active | Not Active | Not Active | – | – | – | – | – | – | – |
| C[C@@H]1C[C@H]2[C@@H]3CCC4=CC(=O)C=C[C@]4(C)[C@@]3(F)[C@@H](O)C[C@]2(C)[C@H]1C(=O)CO [DESOXIMETASONE] | Not Active | Not Active | Not Active | Not Active | Not Active | Not Active | Not Active | Not Active | – | – | – | – | – | – | – |
| CN(C)CC[C@@H](c1ccc(Cl)cc1)c1ccccn1 [DEXCHLORPHENIRAMINE] | Not Active | Not Active | Not Active | Not Active | Not Active | Not Active | Not Active | Not Active | – | – | – | – | – | – | – |
